The values that follow are results of earlier work, collected in PubChem BioAssay AID1259409 (Chemical Carcinogenesis Research Information System (CCRIS), 2018).

Several values for one entry are separate records, joined by “and”; a condition that tells them apart may be missing. Equal values may be shown once.

This data set concerns rodent chemically induced tumor inhibition, incidence and multiplicity. Put plainly: CCRIS tumor inhibitor studies.

As to `CC(=O)O[C@]1(C(C)=O)CC[C@H]2[C@@H]3C[C@H](C)C4=CC(=O)CC[C@]4(C)[C@H]3CC[C@@]21C`, the “tumour outcome (control, treated, inhibition, significance)” value is reported as 63%, 49%, 22%, not calculated (Carcinogen: 7,12-DIMETHYLBENZ[A]ANTHRACENE, 57-97-6, Dose [Inhibitor]: 0, 30 MG (AS DEPO-PROVERA) ONCE 3 WK POST CARCINOGEN DOSE (STUDY DURATION: 85 D), Route [Inhibitor]: SUBCUTANEOUS, Species: RAT, Strain/Sex: SPRAGUE-DAWLEY/FEMALE, Target Tissue: Type of Lesion: MAMMARY GLAND: TUMOR, Dose [Carcinogen]: 20 MG IN 1 ML CORN OIL ONCE, Promoter: NONE USED); 63%, 28%, 56%, not calculated (Carcinogen: 7,12-DIMETHYLBENZ[A]ANTHRACENE, 57-97-6, Dose [Inhibitor]: 0, 30 MG (AS DEPO-PROVERA) ONCE 7 D PRIOR TO CARCINOGEN DOSE (STUDY DURATION: 92 D), Route [Inhibitor]: SUBCUTANEOUS, Species: RAT, Strain/Sex: SPRAGUE-DAWLEY/FEMALE, Target Tissue: Type of Lesion: MAMMARY GLAND: TUMOR, Dose [Carcinogen]: 20 MG IN 1 ML CORN OIL ONCE, Promoter: NONE USED); 63%, 7%, 89%, not calculated (Carcinogen: 7,12-DIMETHYLBENZ[A]ANTHRACENE, 57-97-6, Dose [Inhibitor]: 0, 30 MG (MICROSPHERES) ONCE 7 D PRIOR TO CARCINOGEN DOSE (STUDY DURATION: 92 D), Route [Inhibitor]: SUBCUTANEOUS, Species: RAT, Strain/Sex: SPRAGUE-DAWLEY/FEMALE, Target Tissue: Type of Lesion: MAMMARY GLAND: TUMOR, Dose [Carcinogen]: 20 MG IN 1 ML CORN OIL ONCE, Promoter: NONE USED); 63%, 29%, 54%, not calculated (Carcinogen: 7,12-DIMETHYLBENZ[A]ANTHRACENE, 57-97-6, Dose [Inhibitor]: 0, 100 MG (AS DEPO-PROVERA) ONCE 3 WK POST CARCINOGEN DOSE (STUDY DURATION: 85 WK), Route [Inhibitor]: SUBCUTANEOUS, Species: RAT, Strain/Sex: SPRAGUE-DAWLEY/FEMALE, Target Tissue: Type of Lesion: MAMMARY GLAND: TUMOR, Dose [Carcinogen]: 20 MG IN 1 ML CORN OIL ONCE, Promoter: NONE USED); 63%, 23%, 63%, not calculated (Carcinogen: 7,12-DIMETHYLBENZ[A]ANTHRACENE, 57-97-6, Dose [Inhibitor]: 0, 100 MG (AS DEPO-PROVERA) ONCE 7 D PRIOR TO CARCINOGEN DOSE (STUDY DURATION: 92 D), Route [Inhibitor]: SUBCUTANEOUS, Species: RAT, Strain/Sex: SPRAGUE-DAWLEY/FEMALE, Target Tissue: Type of Lesion: MAMMARY GLAND: TUMOR, Dose [Carcinogen]: 20 MG IN 1 ML CORN OIL ONCE, Promoter: NONE USED); 63%, 6%, 90%, not calculated (Carcinogen: 7,12-DIMETHYLBENZ[A]ANTHRACENE, 57-97-6, Dose [Inhibitor]: 0, 100 MG (MICROSPHERES) ONCE 7 D PRIOR TO CARCINOGEN DOSE (STUDY DURATION: 92 D), Route [Inhibitor]: SUBCUTANEOUS, Species: RAT, Strain/Sex: SPRAGUE-DAWLEY/FEMALE, Target Tissue: Type of Lesion: MAMMARY GLAND: TUMOR, Dose [Carcinogen]: 20 MG IN 1 ML CORN OIL ONCE, Promoter: NONE USED). Also, the “tumour outcome (control, treated, inhibition, significance)” value (Carcinogen: METHYLNITROSOUREA, 684-93-5, Dose [Inhibitor]: 0, 40 MG DEPOT EVERY 2 MO (STUDY DURATION: 345 D), Route [Inhibitor]: SUBCUTANEOUS, Species: MOUSE, Strain/Sex: BALB/FEMALE, Target Tissue: Type of Lesion: HEMATOPOIETIC SYSTEM: LYMPHOMA, Dose [Carcinogen]: 50 MG/KG BW ONCE 15 D POST INHIBITOR REMOVAL, Promoter: NONE) was 18/28 (65%), 5/35 (17%), 74%, p<0.05; the “tumour outcome (control, treated, inhibition, significance)” value (Carcinogen: METHYLNITROSOUREA, 684-93-5, Dose [Inhibitor]: 0, 40 MG DEPOT EVERY 2 MO (STUDY DURATION: 345 D), Route [Inhibitor]: SUBCUTANEOUS, Species: MOUSE, Strain/Sex: BALB/FEMALE, Target Tissue: Type of Lesion: LUNG: TUMOR, Dose [Carcinogen]: 50 MG/KG BW ONCE 15 D POST INHIBITOR REMOVAL, Promoter: NONE) is 24/28 (86%), 28/31 (89%), -3%, not significant; the “tumour outcome (control, treated, inhibition, significance)” value (Carcinogen: METHYLNITROSOUREA, 684-93-5, Dose [Inhibitor]: 0, 40 MG DEPOT EVERY 3 MO (STUDY DURATION: 277 D), Route [Inhibitor]: SUBCUTANEOUS, Species: MOUSE, Strain/Sex: BALB/FEMALE, Target Tissue: Type of Lesion: HEMATOPOIETIC SYSTEM: LYMPHOMA, Dose [Carcinogen]: 50 MG/KG BW ONCE 1 WK POST INHIBITOR FIRST DOSE, Promoter: NONE) is on record as 18/28 (65%), 7/35 (19%), 71%, p<0.05; the “tumour outcome (control, treated, inhibition, significance)” value (Carcinogen: METHYLNITROSOUREA, 684-93-5, Dose [Inhibitor]: 0, 40 MG DEPOT EVERY 3 MO (STUDY DURATION: 277 D), Route [Inhibitor]: SUBCUTANEOUS, Species: MOUSE, Strain/Sex: BALB/FEMALE, Target Tissue: Type of Lesion: LUNG: TUMOR, Dose [Carcinogen]: 50 MG/KG BW ONCE 1 WK POST INHIBITOR FIRST DOSE, Promoter: NONE) is 24/28 (86%), 31/35 (88%), -2%, not significant; the “tumour outcome (control, treated, inhibition, significance)” value (Carcinogen: METHYLNITROSOUREA, 684-93-5, Dose [Inhibitor]: 0, 40 MG DEPOT EVERY 3 MO BEGINNING 1 WK POST CARCINOGEN (STUDY DURATION: 9 MO), Route [Inhibitor]: SUBCUTANEOUS, Species: MOUSE, Strain/Sex: BALB/FEMALE, Target Tissue: Type of Lesion: HEMATOPOIETIC SYSTEM: LYMPHOMA, Dose [Carcinogen]: 50 MG/KG BW ONCE, Promoter: NONE) is recorded as 18/28 (65%), 7/50 (15%), 77%, p<0.05; the “tumour outcome (control, treated, inhibition, significance)” value (Carcinogen: METHYLNITROSOUREA, 684-93-5, Dose [Inhibitor]: 0, 40 MG DEPOT EVERY 3 MO BEGINNING 1 WK POST CARCINOGEN (STUDY DURATION: 9 MO), Route [Inhibitor]: SUBCUTANEOUS, Species: MOUSE, Strain/Sex: BALB/FEMALE, Target Tissue: Type of Lesion: LUNG: TUMOR, Dose [Carcinogen]: 50 MG/KG BW ONCE, Promoter: NONE) is 24/28 (86%), 44/50 (89%), -3%, not significant. Also, the “tumour outcome (control, treated, inhibition, significance)” value is 18/28 (65%), 7/27 (26%), 60%, p<0.05 (Carcinogen: METHYLNITROSOUREA, 684-93-5, Dose [Inhibitor]: 0, 40 MG DEPOT FOR 2 MO BEGINNING 1 WK POST CARCINOGEN (STUDY DURATION: 9 MO), Route [Inhibitor]: SUBCUTANEOUS, Species: MOUSE, Strain/Sex: BALB/FEMALE, Target Tissue: Type of Lesion: HEMATOPOIETIC SYSTEM: LYMPHOMA, Dose [Carcinogen]: 50 MG/KG BW ONCE, Promoter: NONE) and 24/28 (86%), 23/27 (85%), 0%, not significant (Carcinogen: METHYLNITROSOUREA, 684-93-5, Dose [Inhibitor]: 0, 40 MG DEPOT FOR 2 MO BEGINNING 1 WK POST CARCINOGEN (STUDY DURATION: 9 MO), Route [Inhibitor]: SUBCUTANEOUS, Species: MOUSE, Strain/Sex: BALB/FEMALE, Target Tissue: Type of Lesion: LUNG: TUMOR, Dose [Carcinogen]: 50 MG/KG BW ONCE, Promoter: NONE).

Take `O=c1ccc2ccc(O)cc2o1`: the “tumour outcome (control, treated, inhibition, significance)” value was 93%, 93%, 0%, not significant (Carcinogen: 7,12-DIMETHYLBENZ[A]ANTHRACENE, 57-97-6, Dose [Inhibitor]: 0.034 MMOL/G IN DIET FOR 8 D BEGINNING 7 D PRIOR TO CARCINOGEN DOSE (STUDY DURATION: 23 WK), Route [Inhibitor]: ORAL, Species: RAT, Strain/Sex: SPRAGUE-DAWLEY/FEMALE, Target Tissue: Type of Lesion: MAMMARY GLAND: TUMOR, Dose [Carcinogen]: 12 MG IN 1.0 ML OLIVE OIL ONCE, Promoter: NONE USED); 100%, 95%, 5%, not significant and 90%, 95%,-5%, not significant and 95%, 100%, -5%, not significant (Carcinogen: BENZO[A]PYRENE, 50-32-8, Dose [Inhibitor]: 0.034 MMOL/G IN DIET FOR 5 WK BEGINNING 1 WK PRIOR TO FIRST CARCINOGEN DOSE (STUDY DURATION: 21 WK), Route [Inhibitor]: ORAL, Species: MOUSE, Strain/Sex: ICR/FEMALE, Target Tissue: Type of Lesion: FORESTOMACH: TUMOR, Dose [Carcinogen]: 1 MG IN 0.2 ML CORN OIL 2/WK FOR 4 WK, Promoter: NONE USED); 100%, 95%, 5%, not significant (Carcinogen: BENZO[A]PYRENE, 50-32-8, Dose [Inhibitor]: 0.068 MMOL/G IN DIET FOR 5 WK BEGINNING 1 WK PRIOR TO FIRST CARCINOGEN DOSE (STUDY DURATION: 21 WK), Route [Inhibitor]: ORAL, Species: MOUSE, Strain/Sex: ICR/FEMALE, Target Tissue: Type of Lesion: FORESTOMACH: TUMOR, Dose [Carcinogen]: 1 MG IN 0.2 ML CORN OIL 2/WK FOR 4 WK, Promoter: NONE USED).

With `Nc1ncn([C@H]2C[C@H](O)[C@@H](CO)O2)c(=O)n1`, where the note is “Carcinogen: 4-(METHYLNITROSAMINO)-1-(3-PYRIDIYL)-1-BUTANONE, 64091-91-4, Dose [Inhibitor]: 0, 1 MG/KG 3/WK FOR 12 WK THEN 0, 0.5 MG/KG FOR 12 WK BEGINNING 1 WK PRIOR TO CARCINOGEN TREATMENT (STUDY DURATION: 24 W, Dose [Inhibitor]: 0, 1 MG/KG 3/WK FOR 12 WK THEN 0, 0.5 MG/KG FOR 12 WK BEGINNING 1 WK PRIOR TO CARCINOGEN TREATMENT (STUDY DURATION: 24 W, Route [Inhibitor]: INTRAPERITONEAL, Species: MOUSE, Strain/Sex: C3AF1/MALE, Target Tissue: Type of Lesion: LUNG: TUMOR, Dose [Carcinogen]: 3.9 MG/MOUSE (TOTAL DOSE) ADMINISTERED IN TWO WEEKLY DOSES OF 1.9 TO 2 MG, Promoter: NONE USED”, the “tumour outcome (control, treated, inhibition, significance)” value is 100%, 77%, 23%, not significant.
